Reference: patent US8940350B2, “Cereal compositions comprising high-potency sweeteners” (The Coca-Cola Company, priority 2005, dated 2015)

Assay: Rate of dissolution in H2O at 25° C. of rebaudioside A polymorph and amorphous forms
Assay type: physicochemical
Settings: grade in words

Row | Rate of dissolution in H2O at 25° C. | Substance
1 | High | rebaudioside A [Form 4]
2 | Very low | rebaudioside A [Form 1]
3 | High | rebaudioside A [Form 3]
4 | Intermediate | rebaudioside A [Form 2]
